From US20250049741A1, “COMPOSITION FOR PREVENTING OR TREATING ALZHEIMER'S DISEASE COMPRISING PHOSPHOLIPASE C ACTIVATOR AS AN ACTIVE INGREDIENT” (Korea University Research and Business Foundation, priority 2021, published 2025)

What was measured:
[1] = test system: hippocampal CA3-CA1 excitatory synapses; assay: S-eCB mobilization induced spike timing-dependent potentiation (tLTP) protocol, EPSP slope; type: cell-based, Sprague-Dawley rats; conditions: m-3M3FBS 30 μM; AβO-treated rat hippocampal slices; similar to level in DMSO-treated slices
Description: Soluble AβO was prepared according to a previous study (BMC Biol. 2020; 18(1):7). Specifically, Aβ1-42 (Aβ) and a scrambled form of Aβ as a control peptide were purchased in powder form. Aβ and scrambled Aβ were dissolved for monomerization in 1,1,1,3,3,3-hexafluoro-2-propanol (HFIP, Sigma Aldrich, USA) at a final concentration of 1 mM, and the solution was incubated for 90 minutes. After the HFIP was evaporated, the remaining thin and clear film of Aβ or scrambled Aβ was dissolved in dimethyl sulfoxide (DMSO, Sigma Aldrich, USA) to prepare 5 mM Aβ or scrambled Aβ stocks, which were aliquoted and frozen at −20° C. Aβ or scrambled Aβ stocks were thawed and diluted to 100 μM in artificial cerebrospinal fluid (ACSF). Thereafter, Aβ or scrambled Aβ stocks were incubated for oligomerization for 18 hours. The final AβO or scrambled AβO stock solution was diluted to a final concentration of 200 nM in 31.2 ml of ACSF, and rat hippocampal slices were treated with the stock solution for 20 minutes in a recovery chamber before measurement of brain signals. In control experiments for normal brain conditions using a vehicle, rat hippocampal slices were treated with 0.004% DMSO in ACSF.
The brains of SD rats were isolated following decapitation under isoflurane-induced anesthesia and transferred into ice-cold ACSF containing 126 mM NaCl, […], 1.25 mM NaH2PO4, 2 mM MgSO4, 2 mM CaCl2), 25 mM NaHCO3, and 10 mM glucose (pH 7.2 to 7.4). The ACSF was continuously oxygenated with 95% O2/5% CO2. Horizontal hippocampal slices (350 μm thickness) were obtained using a vibratome (VT1000S, Leica Biosystems, Germany) and immediately incubated at room temperature in a submerged chamber perfused with oxygenated ACSF for at least 1 hour.

PLCβ1 = assay: Western blot of hippocampal PLCβ1 after stereotaxic drug injection in 5XFAD mice; type: in vivo; conditions: m-3M3FBS (50 μM, 0.5 μl per site) injected into dorsal and ventral bilateral hippocampi; three days after injection
From the text: To test the acute effect of AβO on hippocampal S-eCB mobilization, hippocampal slices from Sprague-Dawley rats (SD, 2 to 3 weeks old, […] Biolink, Co., Ltd., Korea) were used. Male and female rats were used in all in vitro experiments. To test the chronic effect of AβO on hippocampus-dependent memory impairments caused by amyloidosis, the 5XFAD mouse model (6 to 7 months old, #34840-JAX, Jackson Laboratory, USA), which is a mouse model of Alzheimer's disease that mimics AβO depositions, was used. C57BL/6 mice (6 to 7 months old, KOATECH, Korea) were used as wild type (WT) control mice for 5XFAD mice. Male 5XFAD and C57BL/6 mice were used for all in vivo behavioral experiments. The 5XFAD mouse genotypes were identified by polymerase chain reaction (PCR) using DNA extracted from the tails of the mice. All animal-related procedures followed the guidelines of the Institutional Animal Care and Use Committee of Korea University (guidelines for SD rats: KUIACUC-2017-103, guidelines for C57BL/6 and 5XFAD mice: KUIACUC-2019-0068). […] Immunoreactivity was confirmed with enhanced chemiluminescence (Bio-Rad, USA) using a Fluorchem E system (ProteinSimple, USA) and analyzed with ImageJ software. […]

Cc1cc(C)c(S(=O)(=O)Nc2cccc(C(F)(F)F)c2)c(C)c1 [m-3M3FBS]
tLTP in AβO-treated slices [1]: completely recovered | hippocampal PLCβ1 protein levels in 5XFAD mice (PLCβ1): completely recovered
